According to patent publication US11466044B2 (WAYNE STATE UNIVERSITY, priority 2017, dated 2022):
Converted amounts (≈) assume the structure as drawn. Counter-ions that a name gives are not always drawn. Like-named read-outs stand apart in the source and are kept apart here.

How the values were obtained:
MRSA = assay: MIC by broth microdilution, MRSA isolates; type: cell-based; settings: Staphylococcus aureus, MRSA, Table 1 (Example 3)
E coli wild type = assay: MIC by broth microdilution, wild type E coli; type: cell-based; settings: for MIC: Escherichia coli
P aeruginosa = assay: MIC by broth microdilution, P aeruginosa isolates; type: cell-based, Pseudomonas aeruginosa; settings: strain AG220 Pseudomonas aeruginosa ATCC27853; read-out: MIC AG220 P. aerugin
[1] = tested on: E coli carrying specific resistance determinants; assay: MIC by broth microdilution, E coli carrying specific resistance determinants; type: cell-based; settings: for MIC: Escherichia coli
M. abscessus = assay: MIC by broth microdilution, M. abscessus; type: cell-based; settings: Mycobacteroides abscessus
[2] = tested on: wild type bacterial ribosomes; assay: in-vitro translation assay, bacterial ribosomes; type: biochemical; settings: for IC50: bacterial ribosome, Table 4 (Example 3), read-out: IC50 Bac; for selectivity for the bacterial ribosome over mitochondrial (wild type, A1555G mutant) and cytosolic ribosomes, in words: compared with the parent compound
Description: (§1) The antiribosomal activity of these compounds was investigated with cell-free translation assays using both wild type bacterial ribosomes and hybrid ribosomes carrying eukaryotic decoding A sites enabling the prediction of selectivity.

[3] = tested on: A1555G mutant mitochondrial ribosome (human chimeric); assay: in-vitro translation assay, human chimeric ribosomes, A1555G mutant mitochondrial decoding site; type: biochemical; settings: Table 3 (Example 3)
Description: as §1

[4] = tested on: cytosolic ribosome (human chimeric); type: biochemical; settings: for Selectivity for Binding to the Bacterial Ribosome over the Cytosolic Ribosome: Table 3 (Example 3); for IC50: cytosolic, Table 4 (Example 3), read-out: IC50 Cyt
Description: as §1

[5] = tested on: mitochondrial ribosome (human chimeric); type: biochemical; settings: for Selectivity for Binding to the Bacterial Ribosome over the Mitochondrial Ribosome: Table 3 (Example 3); for IC50: mitochondrial, Table 4 (Example 3), read-out: IC50 Mit
Description: as §1

[6] = tested on: Klebsiella pneumonia AG215; assay: MIC by broth microdilution, Klebsiella pneumonia; type: cell-based; settings: Klebsiella pneumoniae; strain AG215 Klebsiella pneumonia; read-out: MIC AG215 K. pneumon
[7] = tested on: Acinetobacter baumannii pittii AG225; assay: MIC by broth microdilution, Acinetobacter baumannii; type: cell-based; settings: strain AG225 Acinetobacter baumannii pittii
[8] = tested on: Enterobacter cloacae AG290; assay: MIC by broth microdilution, Enterobacter cloacae; type: cell-based; settings: strain AG290 Enterobacter cloacae; read-out: MIC AG290 E. cloacae
M. smegmatis SZ380 = assay: MIC by broth microdilution, M. smegmatis; settings: Mycolicibacterium smegmatis
[9] = clinical isolate AG038, read-out: MIC MRSA AG038
[10] = clinical isolate AG039, read-out: MIC MRSA AG039
[11] = clinical isolate AG042, read-out: MIC MRSA AG042
[12] = AG104 Wild type, Table 2 (Example 3), read-out: MIC E coli AG104 Wild type
[13] = ATCC25922, strain AG212 E. coli (ATCC25922), read-out: MIC AG212 E. coli
[14] = WT, Table 4 (Example 3), read-out: MIC E. coli WT
[15] = WT, Table 5 (Example 3), read-out: MIC E. coli WT
[16] = clinical isolate AG001, Table 1 (Example 3), read-out: MIC E coli AG001
[17] = clinical isolate AG003, Table 1 (Example 3), read-out: MIC E coli AG003
[18] = clinical isolate AG055, Table 1 (Example 3), read-out: MIC E coli AG055
[19] = read-out: MIC E coli AG106 AAC(2′)
[20] = read-out: MIC E. coli AAC(2′) AG106
[21] = read-out: MIC E. coli AAC(2′) pH434
[22] = read-out: MIC E. coli AG106 AAC(2′)-Ia
[23] = read-out: MIC E. coli pGB2armA armA
[24] = read-out: MIC E. coli pH434 AAC(2′)-Ib
[25] = ATCC19977, ATCC 19977 WT, Table 5 (Example 3), read-out: MIC M. abscessus ATCC 19977 WT
[26] = read-out: MIC M. abscessus engineered Δeis2
[27] = ATCC, Table 4 (Example 3), read-out: MIC M. abscessus ATCC
[28] = Clin. Isol., Table 4 (Example 3), read-out: MIC M. abscessus Clin. Isol.
[29] = SZ380, read-out: MIC M. smegmatis SZ380 WT, SZ380 WT, Table 5 (Example 3)
[30] = SZ380, read-out: MIC SZ380 M. smegmatis, strain SZ380 Mycobacterium smegmatis

NCC1OC(OC2C(CO)OC(OC3C(O)C(N)CC(N)C3OC3OC(CN)C(O)C(O)C3NC=O)C2O)C(N)C(O)C1O (stereo not shown) [Compound 182, 2′-N-Formamido-neomycin]
MIC (MRSA; [9]): 2 to 4 µg/mL (≈ 3.11 to 6.22 µM)
MIC (MRSA; [10]): > 32 µg/mL
MIC (MRSA; [11]): > 32 µg/mL
MIC (E coli wild type; AG006 Wild type, Table 2 (Example 3), read-out: MIC E coli AG006 Wild type): 2 µg/mL (≈ 3.11 µM)
MIC (E coli wild type; [12]): 2 to 4 µg/mL (≈ 3.11 to 6.22 µM)
MIC (E coli wild type; [13]): 4 µg/mL (≈ 6.22 µM)
MIC (E coli wild type; [14]): 2 µg/mL (≈ 3.11 µM)
MIC (E coli wild type; [15]): 2 µg/mL (≈ 3.11 µM)
MIC (E coli wild type; [16]): 4 to 8 µg/mL (≈ 6.22 to 12.4 µM)
MIC (E coli wild type; [17]): 4 to 8 µg/mL (≈ 6.22 to 12.4 µM)
MIC (E coli wild type; [18]): 2 µg/mL (≈ 3.11 µM)
antibacterial activity, in words (E coli wild type; MRSA and E coli, compared with the parent compound): retains most of the activity of the parent
MIC (P aeruginosa): > 64 µg/mL
effect of the AAC(2′) resistance determinant, in words ([1]; AAC(2′)): not susceptible to deactivation by AAC(2′)
MIC [1, 19]: 2 µg/mL (≈ 3.11 µM)
MIC [1, 20]: 2 µg/mL (≈ 3.11 µM)
MIC [1, 21]: 8 to 16 µg/mL (≈ 12.4 to 24.9 µM)
MIC [1, 22]: 2 µg/mL (≈ 3.11 µM)
MIC [1, 23]: 8 µg/mL (≈ 12.4 µM)
MIC [1, 24]: 8 to 16 µg/mL (≈ 12.4 to 24.9 µM)
MIC (M. abscessus; [25]): 16 µg/mL (≈ 24.9 µM)
MIC (M. abscessus; [26]): 0.5 µg/mL (≈ 0.778 µM)
MIC (M. abscessus; [27]): 16 µg/mL (≈ 24.9 µM)
MIC (M. abscessus; [28]): 32 µg/mL (≈ 49.8 µM)
IC50 [2]: 0.12 µM
selectivity for the bacterial ribosome over mitochondrial (wild type, A1555G mutant) and cytosolic ribosomes, in words [2]: increased selectivity for the bacterial ribosome
Selectivity for Binding to the Bacterial Ribosome over the Mutant Mitochondrial Ribosome [3]: 108
Selectivity for Binding to the Bacterial Ribosome over the Cytosolic Ribosome [4]: 1093
IC50 [4]: 127 µM
Selectivity for Binding to the Bacterial Ribosome over the Mitochondrial Ribosome [5]: 463
IC50 [5]: 54 µM
MIC [6]: 1 to 2 µg/mL (≈ 1.56 to 3.11 µM)
MIC [7]: 2 µg/mL (≈ 3.11 µM)
MIC [8]: 2 µg/mL (≈ 3.11 µM)
MIC (M. smegmatis SZ380; [29]): 1 µg/mL (≈ 1.56 µM)
MIC (M. smegmatis SZ380; [30]): 1 µg/mL (≈ 1.56 µM)

CNC1C(OC2C(N)CC(N)C(O)C2OC2OC(CO)C(OC3OC(CN)C(O)C(O)C3N)C2O)OC(CO)C(O)C1O (stereo not shown) [Compound 115, 2′-N-Methyl-paromomycin acetate salt]
MIC (MRSA; [9]): 8 µg/mL
MIC (MRSA; [10]): > 128 µg/mL
MIC (MRSA; [11]): > 128 µg/mL
MIC (MRSA; clinical isolate AG044, read-out: MIC MRSA AG044): 4 µg/mL
MIC (E coli wild type; [12]): 2 to 4 µg/mL
MIC (E coli wild type; [13]): 4 µg/mL
MIC (E coli wild type; [14]): 2 to 4 µg/mL
MIC (E coli wild type; [15]): 2 to 4 µg/mL
MIC (E coli wild type; [16]): 16 µg/mL
MIC (E coli wild type; [17]): 16 µg/mL
MIC (E coli wild type; [18]): 16 µg/mL
MIC (P aeruginosa): > 64 µg/mL
MIC [1, 19]: 4 to 8 µg/mL
MIC [1, 20]: 4 µg/mL
MIC [1, 21]: 8 µg/mL
MIC [1, 22]: 4 µg/mL
MIC [1, 23]: 4 to 8 µg/mL
MIC [1, 24]: 8 µg/mL
MIC (M. abscessus; [25]): 16 µg/mL
MIC (M. abscessus; [26]): 0.5 µg/mL
MIC (M. abscessus; [27]): 16 µg/mL
MIC (M. abscessus; [28]): 32 µg/mL
IC50 [2]: 0.03 µM
selectivity for the bacterial ribosome over mitochondrial (wild type, A1555G mutant) and cytosolic ribosomes, in words [2]: increased selectivity for the bacterial ribosome
Selectivity for Binding to the Bacterial Ribosome over the Mutant Mitochondrial Ribosome [3]: 1134
Selectivity for Binding to the Bacterial Ribosome over the Cytosolic Ribosome [4]: 1264
IC50 [4]: 38 µM
Selectivity for Binding to the Bacterial Ribosome over the Mitochondrial Ribosome [5]: 3151
IC50 [5]: 95 µM
MIC [6]: 2 µg/mL
MIC [7]: 4 µg/mL
MIC [8]: 2 µg/mL
MIC (M. smegmatis SZ380; [29]): 4 to 8 µg/mL
MIC (M. smegmatis SZ380; [30]): 4 to 8 µg/mL
